In this data set the test system is CCRIS mutagenicity, Ames/micronucleus/aberration tests. Description: CCRIS mutagenicity studies.
The mark [1] stands for this setting: Test System: AMES SALMONELLA TYPHIMURIUM, Strain/Indicator: TA98, Metabolic Activation: NONE, Method: STANDARD PLATE.
The mark [2] stands for this setting: Test System: AMES SALMONELLA TYPHIMURIUM, Strain/Indicator: TA98, Metabolic Activation: RAT, LIVER, S-9, AROCLOR 1254, Method: STANDARD PLATE.
The mark [3] stands for this setting: Test System: AMES SALMONELLA TYPHIMURIUM, Strain/Indicator: TA100, Metabolic Activation: NONE, Method: STANDARD PLATE.
Setting [4] is: Test System: AMES SALMONELLA TYPHIMURIUM, Strain/Indicator: TA100, Metabolic Activation: RAT, LIVER, S-9, AROCLOR 1254, Method: STANDARD PLATE.
The mark [5] stands for this setting: Test System: AMES SALMONELLA TYPHIMURIUM, Strain/Indicator: TA1535, Metabolic Activation: NONE, Method: STANDARD PLATE.
Where [6] appears, read: Test System: AMES SALMONELLA TYPHIMURIUM, Strain/Indicator: TA1538, Metabolic Activation: NONE, Method: STANDARD PLATE.
The mark [7] stands for this setting: Test System: AMES SALMONELLA TYPHIMURIUM, Strain/Indicator: TA98, Metabolic Activation: NONE, Method: PREINCUBATION
The mark [8] stands for this setting: Test System: AMES SALMONELLA TYPHIMURIUM, Strain/Indicator: TA98, Metabolic Activation: S-9, Method: STANDARD PLATE.

The source made the active and inactive calls. The rule behind the calls is not given here.

For the molecule `N#CCCNCCC#N`, the mutagenic call (Test System: AMES SALMONELLA TYPHIMURIUM, Strain/Indicator: TA98, Metabolic Activation: HAMSTER, LIVER, S-9, AROCLOR 1254, Method: STANDARD PLATE) was “inactive; negative”; the mutagenic call under setting [1] was “inactive; negative”; the mutagenic call under setting [2] is “inactive; negative”; the mutagenic call (Test System: AMES SALMONELLA TYPHIMURIUM, Strain/Indicator: TA100, Metabolic Activation: HAMSTER, LIVER, S-9, AROCLOR 1254, Method: STANDARD PLATE) is “inactive; negative”; the mutagenic call under setting [3] was “inactive; negative”; the mutagenic call under setting [4] was “inactive; negative”. The mutagenic call is “inactive; negative” (Test System: AMES SALMONELLA TYPHIMURIUM, Strain/Indicator: TA1535, Metabolic Activation: HAMSTER, LIVER, S-9, AROCLOR 1254, Method: STANDARD PLATE); “inactive; negative” under setting [5]; “inactive; negative” (Test System: AMES SALMONELLA TYPHIMURIUM, Strain/Indicator: TA1535, Metabolic Activation: RAT, LIVER, S-9, AROCLOR 1254, Method: STANDARD PLATE); “inactive; negative” (Test System: AMES SALMONELLA TYPHIMURIUM, Strain/Indicator: TA1537, Metabolic Activation: HAMSTER, LIVER, S-9, AROCLOR 1254, Method: STANDARD PLATE); “inactive; negative” (Test System: AMES SALMONELLA TYPHIMURIUM, Strain/Indicator: TA1537, Metabolic Activation: NONE, Method: STANDARD PLATE); “inactive; negative” (Test System: AMES SALMONELLA TYPHIMURIUM, Strain/Indicator: TA1537, Metabolic Activation: RAT, LIVER, S-9, AROCLOR 1254, Method: STANDARD PLATE). In addition, the mutagenic call by setting is: (Test System: AMES SALMONELLA TYPHIMURIUM, Strain/Indicator: TA1538, Metabolic Activation: HAMSTER, LIVER, S-9, AROCLOR 1254, Method: STANDARD PLATE) “inactive; negative”; under setting [6], “inactive; negative”; (Test System: AMES SALMONELLA TYPHIMURIUM, Strain/Indicator: TA1538, Metabolic Activation: RAT, LIVER, S-9, AROCLOR 1254, Method: STANDARD PLATE) “inactive; negative”; (Test System: MOUSE LYMPHOMA, Strain/Indicator: L5178Y (TK+/TK-), Metabolic Activation: NONE, Method: SUSPENSION/PLATE) “inactive; negative. reevaluation of results: negative”; (Test System: MOUSE LYMPHOMA, Strain/Indicator: L5178Y (TK+/TK-), Metabolic Activation: RAT, LIVER, S-9, AROCLOR 1254, Method: SUSPENSION/PLATE) “active; positive. reevaluation of results: equivocal”.

As to `CCN(CC)C(=S)S[C@@H]1O[C@H](CO)[C@@H](O)[C@H](O)[C@H]1O`, the mutagenic call runs as follows: under setting [1], “inactive; negative”; under setting [2], “inactive; negative”; under setting [3], “inactive; negative”; under setting [4], “inactive; negative”.

Consider `Cc1cc(-c2ccc(N/N=C3/C(=O)c4c(N)cc(S(=O)(=O)O)cc4C=C3S(=O)(=O)O)c(C)c2)ccc1N/N=C1/C(=O)c2c(N)cc(S(=O)(=O)O)cc2C=C1S(=O)(=O)O`, for which the mutagenic call runs as follows: (Test System: AMES SALMONELLA TYPHIMURIUM, Strain/Indicator: TA98, Metabolic Activation: HAMSTER, LIVER, S-9, Method: PREINCUBATION (PRIVAL METHOD)) “active; positive”; (Test System: AMES SALMONELLA TYPHIMURIUM, Strain/Indicator: TA100, Metabolic Activation: HAMSTER, LIVER, S-9, Method: PREINCUBATION (PRIVAL METHOD)) “active; positive”; under setting [6], “inactive; negative”; (Test System: Ames Salmonella typhimurium, Strain/Indicator: TA98, Metabolic Activation: Rat, Liver, S-9, Sodium phenobarbitone, Method: Preincubation) “inactive; negative, test conducted under both aerobic and anaerobic conditions”; (Test System: Ames Salmonella typhimurium, Strain/Indicator: TA1538, Metabolic Activation: Rat, Liver, S-9, Sodium phenobarbitone, Method: Preincubation) “inactive; negative, test conducted under both aerobic and anaerobic conditions”; (Test System: Mouse lymphoma, Strain/Indicator: L5178Y (tk+/tk-), Metabolic Activation: None, Method: Suspension/plate) “inactive; negative”. Further, for the setting “Test System: Mouse lymphoma, Strain/Indicator: L5178Y (tk+/tk-), Metabolic Activation: Rat, Liver, S-9, Aroclor 1254, Method: Suspension/plate”, the mutagenic call is “inactive; negative”.

With `CCOC(=O)/C=C/c1ccc([N+](=O)[O-])o1`, the mutagenic call under setting [7] was “active; positive”.

As to `Nc1cc(S(=O)(=O)O)ccc1O`, the mutagenic call runs as follows: (Test System: AMES SALMONELLA TYPHIMURIUM, Strain/Indicator: TA97, Metabolic Activation: HAMSTER, LIVER, S-9, AROCLOR 1254 (10 OR 30%), Method: PREINCUBATION) “inactive; negative”; (Test System: AMES SALMONELLA TYPHIMURIUM, Strain/Indicator: TA97, Metabolic Activation: NONE, Method: PREINCUBATION) “inactive; negative”; (Test System: AMES SALMONELLA TYPHIMURIUM, Strain/Indicator: TA97, Metabolic Activation: RAT, LIVER, S-9, AROCLOR 1254 (10 OR 30%), Method: PREINCUBATION) “inactive; negative”; (Test System: AMES SALMONELLA TYPHIMURIUM, Strain/Indicator: TA98, Metabolic Activation: HAMSTER, LIVER, S-9, AROCLOR 1254 (10 OR 30%), Method: PREINCUBATION) “inactive; negative”; under setting [7], “inactive; negative”; (Test System: AMES SALMONELLA TYPHIMURIUM, Strain/Indicator: TA98, Metabolic Activation: RAT, LIVER, S-9, AROCLOR 1254 (10 OR 30%), Method: PREINCUBATION) “inactive; negative”. The mutagenic call is “inactive; negative” (Test System: AMES SALMONELLA TYPHIMURIUM, Strain/Indicator: TA100, Metabolic Activation: HAMSTER, LIVER, S-9, AROCLOR 1254 (10 OR 30%), Method: PREINCUBATION); “inactive; negative” (Test System: AMES SALMONELLA TYPHIMURIUM, Strain/Indicator: TA100, Metabolic Activation: NONE, Method: PREINCUBATION); “inactive; negative” (Test System: AMES SALMONELLA TYPHIMURIUM, Strain/Indicator: TA100, Metabolic Activation: RAT, LIVER, S-9 AROCLOR 1254 (10 OR 30%), Method: PREINCUBATION); “inactive; negative” (Test System: AMES SALMONELLA TYPHIMURIUM, Strain/Indicator: TA1535, Metabolic Activation: HAMSTER, LIVER, S-9, AROCLOR 1254 (10 OR 30%), Method: PREINCUBATION); “inactive; negative” (Test System: AMES SALMONELLA TYPHIMURIUM, Strain/Indicator: TA1535, Metabolic Activation: NONE, Method: PREINCUBATION); “inactive; negative” (Test System: AMES SALMONELLA TYPHIMURIUM, Strain/Indicator: TA1535, Metabolic Activation: RAT, LIVER, S-9, AROCLOR 1254 (10 OR 30%), Method: PREINCUBATION).

For the molecule `COP(=O)(NC(C)=O)SC` (stereo not drawn), the mutagenic call is, setting by setting: under setting [1], “inactive; negative”; under setting [3], “inactive; negative”; under setting [5], “inactive; negative”; (Test System: Mouse Lymphoma, Strain/Indicator: L5178Y (TK+/TK-), Metabolic Activation: None, Method: Suspension/Plate) “active; positive; dose-dependent increase”; (Test System: Mouse Lymphoma, Strain/Indicator: L5178Y (TK+/TK-), Metabolic Activation: Rat, liver S-9, Method: Suspension/Plate) “active; positive; dose-dependent increase”.

In the case of `CC[C@@H](CO)NCCN[C@@H](CC)CO`, the mutagenic call is “inactive; negative” under setting [1]; “inactive; negative” under setting [8]; “inactive; negative” under setting [3]; “inactive; negative” (Test System: AMES SALMONELLA TYPHIMURIUM, Strain/Indicator: TA100, Metabolic Activation: S-9, Method: STANDARD PLATE).

Consider `c1ccc(-c2nc3ccccc3o2)cc1`, for which the mutagenic call reads like this: under setting [1], “inactive; negative”; under setting [8], “inactive; negative”.

For the molecule `C=CCN(CC=C)C1c2ccccc2-c2ccccc2C1N1C2c3ccccc3-c3ccccc3C21` (stereo not drawn), the mutagenic call under setting [3] was “inactive; negative”.

For the origin of these results see PubChem BioAssay AID1259407 (Chemical Carcinogenesis Research Information System (CCRIS), 2018).
